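Assay format: 96-well plates, 48-hour exposure. TGI denotes the concentration required for complete inhibition of growth.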
Columns and labels:
Assay in all cases: NCI-60 cell line screen, 48 h
ACHN renal = system: ACHN renal
M14 melanoma = system: M14 melanoma
HOP-92 NSCLC = system: HOP-92 NSCLC
SNB-75 CNS = system: SNB-75 CNS
LXFL 529 NSCLC = system: LXFL 529 NSCLC
COLO 205 colon = system: COLO 205 colon
UACC-257 melanoma = system: UACC-257 melanoma
SNB-19 CNS = system: SNB-19 CNS
HL-60(TB) leukemia = system: HL-60(TB) leukemia
DLD-1 colon = system: DLD-1 colon
MALME-3M melanoma = system: MALME-3M melanoma
MOLT-4 leukemia = system: MOLT-4 leukemia
SF-295 CNS = system: SF-295 CNS
XF 498 CNS = system: XF 498 CNS
HOP-62 NSCLC = system: HOP-62 NSCLC
RPMI-8226 leukemia = system: RPMI-8226 leukemia
HCT-15 colon = system: HCT-15 colon
KM12 colon = system: KM12 colon
SF-268 CNS = system: SF-268 CNS
OVCAR-3 ovarian = system: OVCAR-3 ovarian
EKVX NSCLC = system: EKVX NSCLC
IGROV1 ovarian = system: IGROV1 ovarian
UACC-62 melanoma = system: UACC-62 melanoma
SK-MEL-2 melanoma = system: SK-MEL-2 melanoma
OVCAR-5 ovarian = system: OVCAR-5 ovarian
A549 NSCLC = system: A549 NSCLC
SK-OV-3 ovarian = system: SK-OV-3 ovarian
TK-10 renal = system: TK-10 renal
CCRF-CEM leukemia = system: CCRF-CEM leukemia
CAKI-1 renal = system: CAKI-1 renal
SNB-78 CNS = system: SNB-78 CNS
HCC-2998 colon = system: HCC-2998 colon
SN12C renal = system: SN12C renal
LOX IMVI melanoma = system: LOX IMVI melanoma
NCI-H522 lung = system: NCI-H522 lung
KM20L2 colon = system: KM20L2 colon
DMS 273 small cell lung = system: DMS 273 small cell lung
OVCAR-4 ovarian = system: OVCAR-4 ovarian
UO-31 renal = system: UO-31 renal
K-562 leukemia = system: K-562 leukemia
NCI-H460 lung = system: NCI-H460 lung
OVCAR-8 ovarian = system: OVCAR-8 ovarian
SW-620 colon = system: SW-620 colon
DMS 114 small cell lung = system: DMS 114 small cell lung
M19-MEL melanoma = system: M19-MEL melanoma
RXF 393 renal = system: RXF 393 renal
786-0 renal = system: 786-0 renal
SK-MEL-5 melanoma = system: SK-MEL-5 melanoma
NCI-H23 lung = system: NCI-H23 lung
SK-MEL-28 melanoma = system: SK-MEL-28 melanoma
HCT-116 colon = system: HCT-116 colon
HT29 colon = system: HT29 colon
SF-539 CNS = system: SF-539 CNS
U251 CNS = system: U251 CNS
HOP-18 NSCLC = system: HOP-18 NSCLC
SR leukemia = system: SR leukemia
NCI-H226 lung = system: NCI-H226 lung
A498 renal = system: A498 renal

O=C1N[C@H](Cc2cnc[nH]2)C(=O)N2CCC[C@@H]12
TGI (ACHN renal): > 100 µM | TGI (M14 melanoma): > 100 µM | TGI (HOP-92 NSCLC): > 100 µM | TGI (SNB-75 CNS): > 100 µM | TGI (LXFL 529 NSCLC): > 100 µM | TGI (COLO 205 colon): > 100 µM | TGI (UACC-257 melanoma): > 100 µM | TGI (SNB-19 CNS): > 100 µM | TGI (HL-60(TB) leukemia): > 100 µM | TGI (DLD-1 colon): > 100 µM | TGI (MALME-3M melanoma): > 100 µM | TGI (MOLT-4 leukemia): > 100 µM | TGI (SF-295 CNS): > 100 µM | TGI (XF 498 CNS): > 100 µM | TGI (HOP-62 NSCLC): > 100 µM | TGI (RPMI-8226 leukemia): > 100 µM | TGI (HCT-15 colon): > 100 µM | TGI (KM12 colon): > 100 µM | TGI (SF-268 CNS): > 100 µM | TGI (OVCAR-3 ovarian): > 100 µM | TGI (EKVX NSCLC): > 100 µM | TGI (IGROV1 ovarian): > 100 µM | TGI (UACC-62 melanoma): > 100 µM | TGI (SK-MEL-2 melanoma): > 100 µM | TGI (OVCAR-5 ovarian): > 100 µM | TGI (A549 NSCLC): > 100 µM | TGI (SK-OV-3 ovarian): > 100 µM | TGI (TK-10 renal): > 100 µM | TGI (CCRF-CEM leukemia): > 100 µM | TGI (CAKI-1 renal): > 100 µM | TGI (SNB-78 CNS): > 100 µM | TGI (HCC-2998 colon): > 100 µM | TGI (SN12C renal): > 100 µM | TGI (LOX IMVI melanoma): > 100 µM | TGI (NCI-H522 lung): > 100 µM | TGI (KM20L2 colon): > 100 µM | TGI (DMS 273 small cell lung): > 100 µM | TGI (OVCAR-4 ovarian): > 100 µM | TGI (UO-31 renal): > 100 µM | TGI (K-562 leukemia): > 100 µM | TGI (NCI-H460 lung): > 100 µM | TGI (OVCAR-8 ovarian): > 100 µM | TGI (SW-620 colon): > 100 µM | TGI (DMS 114 small cell lung): > 100 µM | TGI (M19-MEL melanoma): > 100 µM | TGI (RXF 393 renal): > 100 µM | TGI (786-0 renal): > 100 µM | TGI (SK-MEL-5 melanoma): > 100 µM | TGI (NCI-H23 lung): > 100 µM | TGI (SK-MEL-28 melanoma): > 100 µM

OC[C@@H]1CC#C/C=C\C#CC[C@@H]1CO
TGI (M14 melanoma): > 100 µM | TGI (COLO 205 colon): > 100 µM | TGI (SNB-19 CNS): > 100 µM | TGI (HL-60(TB) leukemia): > 100 µM | TGI (DLD-1 colon): > 100 µM | TGI (MALME-3M melanoma): > 100 µM | TGI (HCT-116 colon): > 100 µM | TGI (MOLT-4 leukemia): > 100 µM | TGI (SF-295 CNS): > 100 µM | TGI (XF 498 CNS): 6.99 µM | TGI (HOP-62 NSCLC): > 100 µM | TGI (RPMI-8226 leukemia): > 100 µM | TGI (HCT-15 colon): > 100 µM | TGI (KM12 colon): > 100 µM | TGI (OVCAR-3 ovarian): > 100 µM | TGI (EKVX NSCLC): > 100 µM | TGI (IGROV1 ovarian): > 100 µM | TGI (SK-MEL-2 melanoma): > 100 µM | TGI (OVCAR-5 ovarian): > 100 µM | TGI (SK-OV-3 ovarian): > 100 µM | TGI (TK-10 renal): > 100 µM | TGI (CAKI-1 renal): > 100 µM | TGI (SNB-78 CNS): > 100 µM | TGI (HCC-2998 colon): > 100 µM | TGI (HT29 colon): > 100 µM | TGI (SF-539 CNS): > 100 µM | TGI (U251 CNS): > 100 µM | TGI (OVCAR-4 ovarian): > 100 µM | TGI (UO-31 renal): > 100 µM | TGI (K-562 leukemia): > 100 µM | TGI (OVCAR-8 ovarian): > 100 µM | TGI (HOP-18 NSCLC): > 100 µM | TGI (DMS 114 small cell lung): > 100 µM | TGI (M19-MEL melanoma): > 100 µM | TGI (RXF 393 renal): > 100 µM | TGI (786-0 renal): > 100 µM | TGI (SK-MEL-5 melanoma): > 100 µM | TGI (NCI-H23 lung): > 100 µM | TGI (SK-MEL-28 melanoma): > 100 µM

COc1ccc(C(=O)c2c(C(C(=O)c3ccc(OC)cc3)C(=O)c3ccc(OC)cc3)n(C(=O)c3ccc(OC)cc3)c3ccccc23)cc1
TGI (ACHN renal): > 100 µM | TGI (M14 melanoma): > 100 µM | TGI (HOP-92 NSCLC): > 100 µM | TGI (SNB-75 CNS): > 100 µM | TGI (LXFL 529 NSCLC): > 100 µM | TGI (COLO 205 colon): > 100 µM | TGI (SNB-19 CNS): > 100 µM | TGI (HL-60(TB) leukemia): > 100 µM | TGI (DLD-1 colon): > 100 µM | TGI (MALME-3M melanoma): > 100 µM | TGI (HCT-116 colon): > 100 µM | TGI (MOLT-4 leukemia): > 100 µM | TGI (SF-295 CNS): > 100 µM | TGI (XF 498 CNS): > 100 µM | TGI (HOP-62 NSCLC): > 100 µM | TGI (RPMI-8226 leukemia): > 100 µM | TGI (HCT-15 colon): > 100 µM | TGI (KM12 colon): > 100 µM | TGI (SF-268 CNS): > 100 µM | TGI (OVCAR-3 ovarian): > 100 µM | TGI (SR leukemia): > 100 µM | TGI (EKVX NSCLC): > 100 µM | TGI (NCI-H226 lung): > 100 µM | TGI (IGROV1 ovarian): > 100 µM | TGI (UACC-62 melanoma): > 100 µM | TGI (SK-MEL-2 melanoma): > 100 µM | TGI (OVCAR-5 ovarian): > 100 µM | TGI (A549 NSCLC): > 100 µM | TGI (SK-OV-3 ovarian): > 100 µM | TGI (TK-10 renal): > 100 µM | TGI (CCRF-CEM leukemia): > 100 µM | TGI (CAKI-1 renal): > 100 µM | TGI (SNB-78 CNS): > 100 µM | TGI (HCC-2998 colon): > 100 µM | TGI (HT29 colon): > 100 µM | TGI (SN12C renal): > 100 µM | TGI (LOX IMVI melanoma): > 100 µM | TGI (A498 renal): > 100 µM | TGI (NCI-H522 lung): > 100 µM | TGI (KM20L2 colon): > 100 µM | TGI (SF-539 CNS): > 100 µM | TGI (DMS 273 small cell lung): > 100 µM | TGI (U251 CNS): > 100 µM | TGI (OVCAR-4 ovarian): > 100 µM | TGI (UO-31 renal): > 100 µM | TGI (K-562 leukemia): > 100 µM | TGI (NCI-H460 lung): > 100 µM | TGI (OVCAR-8 ovarian): > 100 µM | TGI (SW-620 colon): > 100 µM | TGI (DMS 114 small cell lung): > 100 µM | TGI (M19-MEL melanoma): > 100 µM | TGI (RXF 393 renal): > 100 µM | TGI (786-0 renal): > 100 µM | TGI (SK-MEL-5 melanoma): > 100 µM | TGI (NCI-H23 lung): > 100 µM | TGI (SK-MEL-28 melanoma): > 100 µM

Reference: PubChem BioAssay (NCI)
